Tested on: cardiomyocytes
Assay: live cell imaging of changes in cell areas after stimulation (FIG. 17A)
Format: cell-based
Settings: for changes in cell areas vs Ctrl: after 9 h, Ctrl vs PE/Ins; for early dynamics of cell area: early dynamics (<2.5 h), compared with ctrl (no increase)
Procedure: Image acquisition can be performed with a microscope. Preferably, this is performed at the end of the experiment. In other embodiments, the image acquisition is performed during the course of the experiment to analyze the cell response over time (video, live cell imaging).
In order to perform time series analysis, imaging of cells can happen multiple times with live cell fluorescent dyes. This allows visualizing the dynamics of cell morphological changes over time. Experiments have shown that certain dynamics leads to a characteristic set of meta-features associated with certain diagnoses, prognoses, and/or individualized therapy.

Question: Which “changes in cell areas vs Ctrl” value does the source give for `CNC[C@H](O)c1cccc(O)c1` [PE, phenylephrine] here?
Answer: differences following stimulation can be observed

Question: And the “early dynamics of cell area” value?
Answer: steep increase

Question: What does the source list for insulin?
Answer: changes in cell areas vs Ctrl: differences following stimulation can be observed; early dynamics of cell area: less steep increase

Reference: US20230352149A1, “Single-cell morphology analysis for disease profiling and drug discovery” (Universität Heidelberg, priority 2020, published 2023)
